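Grown in 96-well plates, cells were treated for 48 hours with each compound at five concentrations. Insufficient inhibition: endpoint recorded as highest concentration tested. GI50: concentration for 50% inhibition of growth.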 Activity calls are given as the source filed them. No stated cut-off is given here; in the data, active = GI50 up to about 1.1 µM and inactive = higher.
Legend:
Experiment in all cases: NCI anticancer screen, dose series, 48 h
RXF 393 = system: RXF 393
SW-620 = system: SW-620
NCI-H522 = system: NCI-H522
SF-268 = system: SF-268
MOLT-4 = system: MOLT-4
SK-MEL-28 = system: SK-MEL-28
NCI-H23 = system: NCI-H23
U-251 = system: U-251
SF-539 = system: SF-539
SNB-19 = system: SNB-19
CCRF-CEM = system: CCRF-CEM
IGROV-1 = system: IGROV-1
CAKI-1 = system: CAKI-1
Malme-3M = system: Malme-3M
M14 = system: M14
A498 = system: A498
SR = system: SR
SF-295 = system: SF-295
786-0 = system: 786-0
UO-31 = system: UO-31

Measured: GI50

NC(=O)C[C@H](NC(=O)C1(NC(=O)[C@H](Cc2ccc(CP(=O)(O)O)cc2)NC(=O)C(=O)O)CCCCC1)C(=O)NCCCc1cccc2ccccc12
inactive: RXF 393 > 10 µM | SW-620 > 10 µM | NCI-H522 > 10 µM | SF-268 > 10 µM | MOLT-4 > 10 µM | SK-MEL-28 > 10 µM | NCI-H23 > 10 µM | U-251 > 10 µM | SF-539 > 10 µM | SNB-19 > 10 µM | CCRF-CEM 8.28 µM | IGROV-1 > 10 µM | CAKI-1 > 10 µM | Malme-3M > 10 µM | M14 > 10 µM | A498 > 10 µM | SR 1.82 µM | SF-295 > 10 µM | 786-0 > 10 µM | UO-31 > 10 µM

COc1ccc(/C=N/n2c(Cc3ccccc3)n[nH]c2=O)c(OC)c1
inactive: RXF 393 9.98 µM | SW-620 > 85.9 µM | NCI-H522 > 52 µM | SF-268 15.5 µM | MOLT-4 > 100 µM | SK-MEL-28 > 100 µM | NCI-H23 29.4 µM | U-251 22 µM | SF-539 28.8 µM | SNB-19 28.2 µM | CCRF-CEM > 100 µM | IGROV-1 28.8 µM | CAKI-1 > 51.4 µM | Malme-3M 59.2 µM | M14 51.8 µM | A498 44.4 µM | SR > 100 µM | SF-295 15.3 µM | 786-0 31 µM | UO-31 > 42.8 µM

COC(=O)C1=C(OC(=O)c2ccccc2)C(C(=O)OC)[C@@]2(O)[C@@H](C(=O)OC)[C@H](C)C[C@@H]1[C@@H]2C(=O)OC (stereo not given in full)
inactive: RXF 393 14.4 µM | SW-620 28.6 µM | NCI-H522 13.2 µM | SF-268 47.8 µM | MOLT-4 46.1 µM | SK-MEL-28 27.2 µM | NCI-H23 30.8 µM | U-251 35.4 µM | SF-539 14.5 µM | SNB-19 74.6 µM | CCRF-CEM 8.89 µM | IGROV-1 33.8 µM | CAKI-1 42.2 µM | Malme-3M 26.9 µM | M14 28.3 µM | A498 26.4 µM | SR 21.5 µM | SF-295 35.1 µM | 786-0 38.1 µM | UO-31 29.5 µM

Cc1oc2c(c1C(=O)c1ccccc1)C(=O)c1ccccc1C2=O
inactive: RXF 393 3.48 µM | SW-620 1.92 µM | NCI-H522 2.3 µM | SF-268 10.8 µM | MOLT-4 2.47 µM | SK-MEL-28 11.1 µM | NCI-H23 2.01 µM | U-251 7.24 µM | SF-539 10.6 µM | SNB-19 9.91 µM | CCRF-CEM 2.16 µM | IGROV-1 4.99 µM | CAKI-1 4.23 µM | Malme-3M 1.81 µM | M14 4.28 µM | A498 19.7 µM | SR 3.24 µM | SF-295 9.27 µM | 786-0 4.38 µM | UO-31 9.75 µM

CCSC12OC3(CCCCCN3C1=O)C1C(=O)N(c3ccccc3)C(=O)C12 (stereo not given)
inactive: RXF 393 > 100 µM | SW-620 > 100 µM | NCI-H522 > 100 µM | SF-268 > 100 µM | MOLT-4 > 100 µM | SK-MEL-28 > 100 µM | NCI-H23 > 100 µM | U-251 > 100 µM | SF-539 > 100 µM | SNB-19 > 100 µM | CCRF-CEM > 100 µM | IGROV-1 > 100 µM | CAKI-1 > 100 µM | Malme-3M > 100 µM | M14 > 100 µM | A498 > 100 µM | SR > 100 µM | SF-295 > 100 µM | 786-0 > 100 µM | UO-31 > 100 µM

CCOC(=O)N1C/C(=C\c2ccc(N(C)C)cc2)C(=O)/C(=C/c2ccc(N(C)C)cc2)C1
inactive: RXF 393 > 100 µM | SW-620 > 100 µM | NCI-H522 > 100 µM | SF-268 > 100 µM | MOLT-4 > 100 µM | SK-MEL-28 > 100 µM | NCI-H23 > 100 µM | U-251 > 100 µM | SF-539 > 100 µM | SNB-19 > 100 µM | CCRF-CEM > 100 µM | IGROV-1 > 100 µM | CAKI-1 > 100 µM | Malme-3M > 100 µM | M14 > 100 µM | A498 > 100 µM | SR > 100 µM | SF-295 > 100 µM | 786-0 > 100 µM | UO-31 > 100 µM

CCOC(=O)/C(=C\NCc1ccc2c(c1)OCO2)c1nc2ccccc2[nH]1
inactive: RXF 393 > 100 µM | SW-620 98.2 µM | NCI-H522 28.2 µM | SF-268 61.4 µM | MOLT-4 30.5 µM | SK-MEL-28 60.7 µM | NCI-H23 25.6 µM | U-251 82 µM | SF-539 35.4 µM | SNB-19 46.9 µM | CCRF-CEM 42 µM | IGROV-1 40.3 µM | CAKI-1 > 100 µM | Malme-3M 41.7 µM | M14 47.2 µM | A498 > 100 µM | SR 48.1 µM | SF-295 53.5 µM | 786-0 36.9 µM | UO-31 79.4 µM

CC1(C)C2CCC(=O)C1C(OCc1ccccc1)C2 (stereo not given)
inactive: RXF 393 > 100 µM | SW-620 > 100 µM | NCI-H522 > 100 µM | SF-268 > 100 µM | MOLT-4 > 100 µM | SK-MEL-28 > 100 µM | NCI-H23 > 100 µM | U-251 > 100 µM | SF-539 > 100 µM | SNB-19 > 100 µM | CCRF-CEM > 100 µM | IGROV-1 > 100 µM | CAKI-1 24.1 µM | Malme-3M > 100 µM | M14 > 100 µM | A498 > 100 µM | SR 29.8 µM | SF-295 > 100 µM | 786-0 > 100 µM | UO-31 > 100 µM
